We go through four compounds from BindingDB's records for doi:10.1016/S0960-894X(96)00606-3 (1997).

The assay addresses T1, C5a anaphylatoxin chemotactic receptor 1 (Homo sapiens, UniProt P21730).
T1 sequence (P21730 whole entry): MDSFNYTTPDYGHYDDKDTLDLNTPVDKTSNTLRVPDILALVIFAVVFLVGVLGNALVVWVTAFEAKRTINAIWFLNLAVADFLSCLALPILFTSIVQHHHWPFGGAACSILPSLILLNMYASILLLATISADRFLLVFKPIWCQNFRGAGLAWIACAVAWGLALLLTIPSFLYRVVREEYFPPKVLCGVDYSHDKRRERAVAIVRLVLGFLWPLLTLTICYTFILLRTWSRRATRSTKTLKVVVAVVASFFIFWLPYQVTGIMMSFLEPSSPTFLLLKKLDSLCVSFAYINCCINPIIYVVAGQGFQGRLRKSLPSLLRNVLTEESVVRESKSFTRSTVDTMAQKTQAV
As to the kind of experiment: ChEBML_41457. From the text:
Tested for its ability to compete with [125I]C5a for binding to C5a anaphylatoxin chemotactic receptor of human neutrophil membrane preparations

SMILES strings stand for the structures.

As for `N=C(N)NCCCc1[nH]c(=O)n(C(CCc2ccccc2)C(=O)N2CCC3(CCc4ccccc43)CC2)c1O` [5-[3-amino(imino)methylaminopropyl]-3-[3-phenyl-1-spiro[2,3-dihydro-1H-indene-1,4'-(hexahydropyridine)]-1-ylcarbonylpropyl]-(5R)-tetrahydro-1H-2,4-imidazoledione], 3 µM corresponded to half-maximal inhibition (IC50). In turn, `NCCCCc1[nH]c(=O)n([C@H](CC2CCCCC2)C(=O)N2CCC3(CCc4ccccc43)CC2)c1O` [5-(4-aminobutyl)-3-[1-cyclohexylmethyl-2-oxo-2-spiro[2,3-dihydro-1H-indene-1,4'-(hexahydropyridine)]-1-yl-(1R)-ethyl]-(5R)-tetrahydro-1H-2,4-imidazoledione] had an IC50 of 4 µM.

Take `N=C(N)NCCCc1[nH]c(=O)n([C@H](Cc2ccc(O)cc2)C(=O)N2CCC3(CCc4ccccc43)CC2)c1O` [5-[3-amino(imino)methylaminopropyl]-3-[1-(4-hydroxybenzyl)-2-oxo-2-spiro[2,3-dihydro-1H-indene-1,4'-(hexahydropyridine)]-1-yl-(1R)-ethyl]-(5R)-tetrahydro-1H-2,4-imidazoledione]: half-maximal inhibition (IC50) was put at 4 µM.

The compound `CCC[C@H](C(=O)N1CCC2(CCc3ccccc32)CC1)n1c(O)c(CCCNC(=N)N)[nH]c1=O` [5-[3-amino(imino)methylaminopropyl]-3-[1-spiro[2,3-dihydro-1H-indene-1,4'-(hexahydropyridine)]-1-ylcarbonyl-(1R)-butyl]-(5R)-tetrahydro-1H-2,4-imidazoledione] registered an IC50 of 3 µM.

By IC50 is commonly meant the concentration that gives 50% inhibition. A higher IC50 goes with lower potency.
